{
  "source": "paper PMC9442787",
  "about": "“A Modified Yeast Two-Hybrid Platform Enables Dynamic Control of Expression Intensities to Unmask Properties of Protein–Protein Interactions” (ACS Synthetic Biology, 2022)",
  "key": {"SiGID1b1": {"molecular_target": "T1, SiGID1b1 (Solanum lycopersicum, UniProt A0A3Q7J108)", "T1 construct": "gene GID1b-1; receptor fused to GAL4 BD (pBD-pZ-FLAG), PROCERA fused to GAL4 AD (pACT-Lex), in yeast Y190; with DELLA protein GAI (PROCERA)", "T1 sequence (A0A3Q7J108 1-345)": "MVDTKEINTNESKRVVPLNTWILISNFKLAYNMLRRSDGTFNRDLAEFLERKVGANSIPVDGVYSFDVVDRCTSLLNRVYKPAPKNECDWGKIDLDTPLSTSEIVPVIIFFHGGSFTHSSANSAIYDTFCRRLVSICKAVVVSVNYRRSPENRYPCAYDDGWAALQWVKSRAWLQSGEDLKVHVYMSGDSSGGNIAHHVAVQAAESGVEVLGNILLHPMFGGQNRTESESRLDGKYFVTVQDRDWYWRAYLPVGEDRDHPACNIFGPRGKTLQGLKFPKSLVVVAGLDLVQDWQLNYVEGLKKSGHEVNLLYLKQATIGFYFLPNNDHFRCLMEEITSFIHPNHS", "T1 sequence (Q7Y1B6 1-588 partner)": "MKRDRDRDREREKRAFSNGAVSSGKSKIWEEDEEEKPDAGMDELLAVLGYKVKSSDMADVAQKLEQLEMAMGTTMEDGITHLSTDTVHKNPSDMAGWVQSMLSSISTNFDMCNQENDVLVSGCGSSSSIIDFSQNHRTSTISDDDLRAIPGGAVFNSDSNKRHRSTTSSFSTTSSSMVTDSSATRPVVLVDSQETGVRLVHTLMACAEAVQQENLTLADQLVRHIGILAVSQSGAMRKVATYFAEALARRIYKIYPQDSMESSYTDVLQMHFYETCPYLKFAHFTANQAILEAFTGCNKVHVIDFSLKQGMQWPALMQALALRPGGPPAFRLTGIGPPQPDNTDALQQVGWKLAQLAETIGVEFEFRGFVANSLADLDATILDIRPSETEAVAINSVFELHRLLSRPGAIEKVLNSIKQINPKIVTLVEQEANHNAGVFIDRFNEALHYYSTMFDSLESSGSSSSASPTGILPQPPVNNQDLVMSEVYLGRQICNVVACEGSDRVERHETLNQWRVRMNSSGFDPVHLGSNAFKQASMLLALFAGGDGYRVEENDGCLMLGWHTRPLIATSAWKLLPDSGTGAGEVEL", "test": "adjustable yeast two-hybrid, mScarlet-I fluorescence", "type": "cell-based", "conditions": "interaction with PROCERA; estradiol/progesterone-titrated expression; 30 °C"}, "PYL7": {"molecular_target": "PYL7 (Arabidopsis thaliana, UniProt Q1ECF1)", "sequence (Q1ECF1 whole entry)": "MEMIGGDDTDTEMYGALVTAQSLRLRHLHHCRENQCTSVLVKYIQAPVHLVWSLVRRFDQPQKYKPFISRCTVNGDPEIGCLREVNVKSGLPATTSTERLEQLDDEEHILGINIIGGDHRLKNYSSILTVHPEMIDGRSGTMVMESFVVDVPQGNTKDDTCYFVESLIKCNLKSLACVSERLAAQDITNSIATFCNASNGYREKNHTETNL", "sequence (Q9CAJ0 whole entry partner)": "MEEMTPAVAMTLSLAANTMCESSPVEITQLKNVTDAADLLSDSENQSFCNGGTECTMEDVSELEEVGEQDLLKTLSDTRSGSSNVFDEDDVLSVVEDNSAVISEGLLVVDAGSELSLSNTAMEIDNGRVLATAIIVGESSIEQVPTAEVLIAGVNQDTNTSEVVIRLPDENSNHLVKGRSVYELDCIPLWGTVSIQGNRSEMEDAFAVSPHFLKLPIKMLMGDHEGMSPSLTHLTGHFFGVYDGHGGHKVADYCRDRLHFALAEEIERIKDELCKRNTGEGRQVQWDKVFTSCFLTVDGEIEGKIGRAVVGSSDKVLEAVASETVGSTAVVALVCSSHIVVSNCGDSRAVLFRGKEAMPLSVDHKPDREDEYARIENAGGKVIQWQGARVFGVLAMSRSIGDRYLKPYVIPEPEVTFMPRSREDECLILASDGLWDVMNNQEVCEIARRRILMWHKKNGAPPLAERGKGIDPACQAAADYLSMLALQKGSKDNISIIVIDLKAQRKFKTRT", "conditions": "interaction with PP2C (HAB1 or ABI1 not told); low inducer concentrations; 30 °C"}},
  "data": [
    {"smiles": "C=C1C[C@]23C[C@@]1(O)CC[C@H]2[C@@]12C=C[C@H](O)[C@@](C)(C(=O)O1)[C@H]2[C@@H]3C(=O)O", "note": "[GA3]", "values": [
      {"measurement": "adjustable yeast two-hybrid, mScarlet-I fluorescence", "setting": "SiGID1b1", "result": "SiGID1b1 displayed full dependency on GA presence for interaction with SiPROCERA"}
    ]},
    {"smiles": "CC1=CC(=O)CC(C)(C)[C@@]1(O)/C=C/C(C)=C\\C(=O)O", "note": "[abscisic acid]", "values": [
      {"measurement": "maximal ratio of signal with ABA to mock", "setting": "PYL7", "result": 4.9}
    ]}
  ]
}
